Reference: PubChem BioAssay (NCI)
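Dose response: 5 concentrations. Exposure: 48 h. Format: 96-well plates. Endpoint: linear interpolation; highest concentration if not reached. GI50 is the concentration that inhibits growth by half. TGI marks complete inhibition of growth.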

Legend:
Experiment in all cases: DTP human tumour cell line panel, 48 h
[1] = test system: K-562 leukemia
[2] = test system: UACC-62 melanoma
[3] = test system: SK-MEL-28 melanoma
[4] = test system: HCT-15 colon
[5] = test system: SK-MEL-2 melanoma
[6] = test system: HT29 colon
[7] = test system: RPMI-8226 leukemia
[8] = test system: NCI-H522 lung
[9] = test system: MALME-3M melanoma
[10] = test system: SK-MEL-5 melanoma
[11] = test system: SF-268 CNS
[12] = test system: NCI/ADR-RES ovarian
[13] = test system: 786-0 renal
[14] = test system: SK-OV-3 ovarian
[15] = test system: A549 NSCLC
[16] = test system: HCC-2998 colon
[17] = test system: DU-145 prostate
[18] = test system: HOP-62 NSCLC
[19] = test system: NCI-H226 lung
[20] = test system: NCI-H23 lung
[21] = test system: KM12 colon
[22] = test system: PC-3 prostate
[23] = test system: LOX IMVI melanoma
[24] = test system: SNB-75 CNS
[25] = test system: UO-31 renal
[26] = test system: HOP-92 NSCLC
[27] = test system: RXF 393 renal
[28] = test system: OVCAR-8 ovarian
[29] = test system: HCT-116 colon
[30] = test system: OVCAR-4 ovarian
[31] = test system: SN12C renal
[32] = test system: CAKI-1 renal
[33] = test system: MOLT-4 leukemia
[34] = test system: UACC-257 melanoma
[35] = test system: ACHN renal
[36] = test system: OVCAR-5 ovarian
[37] = test system: HL-60(TB) leukemia
[38] = test system: SF-295 CNS
[39] = test system: SR leukemia
[40] = test system: SNB-19 CNS
[41] = test system: SF-539 CNS
[42] = test system: EKVX NSCLC
[43] = test system: IGROV1 ovarian
[44] = test system: NCI-H460 lung
[45] = test system: HS 578T breast
[46] = test system: U251 CNS
[47] = test system: A498 renal
[48] = test system: TK-10 renal
[49] = test system: CCRF-CEM leukemia
[50] = test system: MDA-MB-231 breast
[51] = test system: T-47D breast
[52] = test system: SW-620 colon
[53] = test system: MDA-MB-435
[54] = test system: COLO 205 colon
[55] = test system: M14 melanoma
[56] = test system: OVCAR-3 ovarian
[57] = test system: MCF7 breast

Cc1ccc(S(=O)(=O)N/N=c2/sc3ccccc3n2C)cc1
TGI [1]: > 100 µM
TGI [2]: > 100 µM
TGI [3]: > 100 µM
TGI [4]: > 100 µM
TGI [5]: > 100 µM
TGI [6]: > 100 µM
TGI [7]: > 100 µM
TGI [8]: > 100 µM
TGI [9]: > 100 µM
TGI [10]: > 100 µM
TGI [11]: > 100 µM
TGI [12]: > 100 µM
TGI [13]: > 100 µM
TGI [14]: > 100 µM
TGI [15]: > 100 µM
TGI [16]: > 100 µM
TGI [17]: > 100 µM
TGI [18]: > 100 µM
TGI [19]: > 100 µM
TGI [20]: > 100 µM
TGI [21]: > 100 µM
TGI [22]: > 100 µM
TGI [23]: > 100 µM
TGI [24]: > 100 µM
TGI [25]: > 100 µM
TGI [26]: > 100 µM
TGI [27]: > 100 µM
TGI [28]: > 100 µM
TGI [29]: > 100 µM
TGI [30]: > 100 µM
TGI [31]: > 100 µM
TGI [32]: > 100 µM
TGI [33]: > 100 µM
TGI [34]: > 100 µM
TGI [35]: > 100 µM
TGI [36]: > 100 µM
TGI [37]: > 100 µM
TGI [38]: > 100 µM
TGI [39]: > 100 µM
TGI [40]: > 100 µM
TGI [41]: > 100 µM
TGI [42]: > 100 µM
TGI [43]: > 100 µM
TGI [44]: > 100 µM
TGI [45]: > 100 µM
TGI [46]: > 100 µM
TGI [47]: > 100 µM
TGI [48]: > 100 µM
TGI [49]: > 100 µM
TGI [50]: > 100 µM
TGI [51]: > 100 µM
TGI [52]: > 100 µM
TGI [53]: > 100 µM
TGI [54]: > 100 µM

O=C(Nc1ccc(-n2cc(-c3ccncc3)c(-c3ccc(O)c(Cl)c3)n2)cc1)Nc1cc(C(F)(F)F)cc(C(F)(F)F)c1
GI50 [1]: 4.07 µM
TGI [1]: 17.9 µM
GI50 [2]: 3.02 µM
TGI [2]: 10.6 µM
GI50 [3]: 4.48 µM
TGI [3]: 16.5 µM
GI50 [4]: 3.36 µM
TGI [4]: 12.6 µM
GI50 [5]: 2.2 µM
TGI [5]: 4.98 µM
GI50 [6]: 8.94 µM
TGI [6]: 22.7 µM
GI50 [7]: 2.81 µM
TGI [7]: 9.95 µM
GI50 [8]: 3.79 µM
TGI [8]: 15 µM
GI50 [55]: 3.6 µM
TGI [55]: 13.6 µM
GI50 [9]: 2.59 µM
TGI [9]: 13.9 µM
GI50 [10]: 4.08 µM
TGI [10]: 15.5 µM
GI50 [11]: 4.37 µM
TGI [11]: 16 µM
GI50 [12]: 4.94 µM
TGI [12]: 22.5 µM
GI50 [15]: 4.06 µM
TGI [15]: 15.5 µM
GI50 [16]: 5.03 µM
TGI [16]: 22.1 µM
GI50 [17]: 5.97 µM
TGI [17]: 18.9 µM
GI50 [18]: 5.02 µM
TGI [18]: 17.3 µM
GI50 [19]: 13.3 µM
TGI [19]: 29.4 µM
GI50 [20]: 3.63 µM
TGI [20]: 18.4 µM
GI50 [21]: 3.3 µM
TGI [21]: 11.7 µM
GI50 [22]: 2.92 µM
TGI [22]: 11.5 µM
GI50 [23]: 3.73 µM
TGI [23]: 23.7 µM
GI50 [24]: 2.07 µM
TGI [24]: 12.6 µM
GI50 [25]: 1.94 µM
TGI [25]: 12.6 µM
GI50 [26]: 1.64 µM
TGI [26]: 5.74 µM
GI50 [27]: 2.54 µM
TGI [27]: 6.9 µM
GI50 [28]: 3.44 µM
TGI [28]: 11.7 µM
GI50 [29]: 3.78 µM
TGI [29]: 13.7 µM
GI50 [30]: 2.92 µM
TGI [30]: 10.7 µM
GI50 [31]: 4.12 µM
TGI [31]: 16.3 µM
GI50 [32]: 3.34 µM
TGI [32]: 12.8 µM
GI50 [33]: 4.29 µM
TGI [33]: 18.3 µM
GI50 [34]: 5.81 µM
TGI [34]: 20.5 µM
GI50 [35]: 3.24 µM
TGI [35]: 11.7 µM
GI50 [36]: 3.17 µM
TGI [36]: 12.7 µM
GI50 [37]: 2.98 µM
TGI [37]: 8.09 µM
GI50 [38]: 2.08 µM
TGI [38]: 6.56 µM
GI50 [39]: 6.06 µM
TGI [39]: 31.3 µM
GI50 [40]: 4.45 µM
TGI [40]: 16.5 µM
GI50 [41]: 3.81 µM
TGI [41]: 15.3 µM
GI50 [56]: 2.73 µM
TGI [56]: 6.76 µM
GI50 [42]: 3.57 µM
TGI [42]: 15.6 µM
GI50 [43]: 4.61 µM
TGI [43]: 18.9 µM
GI50 [57]: 3.3 µM
TGI [57]: 13.2 µM
GI50 [44]: 3.69 µM
TGI [44]: 14.6 µM
GI50 [45]: 1.94 µM
TGI [45]: 7.41 µM
GI50 [46]: 2.98 µM
TGI [46]: 12.4 µM
GI50 [47]: 3.68 µM
TGI [47]: 16.3 µM
GI50 [48]: 3.55 µM
TGI [48]: 13.6 µM
GI50 [49]: 4.06 µM
TGI [49]: 19.2 µM
GI50 [50]: 3.61 µM
TGI [50]: 14.6 µM
GI50 [51]: 3.28 µM
TGI [51]: 10.7 µM
GI50 [52]: 5.93 µM
TGI [52]: 22 µM
GI50 [53]: 3.37 µM
TGI [53]: 12.8 µM
GI50 [54]: 2.62 µM
TGI [54]: 7.83 µM

COc1cc2c(c3c1c(=O)c1ccccc1n3C)C=C([N+](=O)[O-])C(C)(C)O2
TGI [1]: > 100 µM
TGI [2]: > 100 µM
TGI [4]: > 100 µM
TGI [6]: > 100 µM
TGI [7]: > 31.6 µM
TGI [8]: > 34.4 µM
TGI [10]: 0.0567 µM
TGI [11]: > 100 µM
TGI [12]: > 100 µM
TGI [13]: > 100 µM
TGI [14]: > 100 µM
TGI [15]: > 100 µM
TGI [17]: > 100 µM
TGI [18]: > 100 µM
TGI [19]: > 100 µM
TGI [20]: > 100 µM
TGI [21]: > 100 µM
TGI [22]: > 100 µM
TGI [23]: > 100 µM
TGI [24]: > 100 µM
TGI [25]: > 100 µM
TGI [26]: > 100 µM
TGI [27]: 0.328 µM
TGI [28]: > 100 µM
TGI [29]: > 100 µM
TGI [30]: > 100 µM
TGI [31]: > 100 µM
TGI [32]: > 100 µM
TGI [33]: > 100 µM
TGI [34]: > 48 µM
TGI [35]: 0.464 µM
TGI [36]: > 100 µM
TGI [37]: > 100 µM
TGI [38]: > 100 µM
TGI [39]: > 100 µM
TGI [40]: > 100 µM
TGI [41]: > 100 µM
TGI [56]: > 100 µM
TGI [42]: > 100 µM
TGI [43]: > 100 µM
TGI [57]: > 100 µM
TGI [44]: 0.108 µM
TGI [45]: > 100 µM
TGI [46]: > 100 µM
TGI [47]: 12.5 µM
TGI [48]: > 100 µM
TGI [49]: > 100 µM
TGI [50]: > 31.6 µM
TGI [51]: > 100 µM
TGI [53]: 0.577 µM
